{"source": "paper PMC5216056", "about": "(Nature Communications, 2017)", "key": {"[1]": {"molecular_target": "T1, 5-HT1A (h) (Homo sapiens, UniProt P08908)", "T1 construct": "CEREP (contract assay)", "assay": "CEREP panel", "assay_type": "binding", "conditions": "10 µM"}, "[2]": {"molecular_target": "T2, sst4 (h) (Homo sapiens, UniProt P31391)", "T2 construct": "CEREP (contract assay)", "T2 sequence (P31391 whole entry)": "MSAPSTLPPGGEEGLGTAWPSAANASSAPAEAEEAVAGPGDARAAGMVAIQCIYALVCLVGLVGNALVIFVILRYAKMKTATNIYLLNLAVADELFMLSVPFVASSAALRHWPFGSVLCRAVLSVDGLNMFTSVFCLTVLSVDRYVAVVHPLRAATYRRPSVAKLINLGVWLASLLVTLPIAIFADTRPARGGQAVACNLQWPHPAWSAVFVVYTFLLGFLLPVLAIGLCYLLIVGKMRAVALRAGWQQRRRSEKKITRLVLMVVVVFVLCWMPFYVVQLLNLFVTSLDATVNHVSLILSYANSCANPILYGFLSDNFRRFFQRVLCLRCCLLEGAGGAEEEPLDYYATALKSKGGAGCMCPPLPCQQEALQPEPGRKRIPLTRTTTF", "assay": "CEREP panel", "assay_type": "binding", "conditions": "10 µM"}, "[3]": {"molecular_target": "human P-gp (Homo sapiens, UniProt P08183)", "sequence (P08183 whole entry)": "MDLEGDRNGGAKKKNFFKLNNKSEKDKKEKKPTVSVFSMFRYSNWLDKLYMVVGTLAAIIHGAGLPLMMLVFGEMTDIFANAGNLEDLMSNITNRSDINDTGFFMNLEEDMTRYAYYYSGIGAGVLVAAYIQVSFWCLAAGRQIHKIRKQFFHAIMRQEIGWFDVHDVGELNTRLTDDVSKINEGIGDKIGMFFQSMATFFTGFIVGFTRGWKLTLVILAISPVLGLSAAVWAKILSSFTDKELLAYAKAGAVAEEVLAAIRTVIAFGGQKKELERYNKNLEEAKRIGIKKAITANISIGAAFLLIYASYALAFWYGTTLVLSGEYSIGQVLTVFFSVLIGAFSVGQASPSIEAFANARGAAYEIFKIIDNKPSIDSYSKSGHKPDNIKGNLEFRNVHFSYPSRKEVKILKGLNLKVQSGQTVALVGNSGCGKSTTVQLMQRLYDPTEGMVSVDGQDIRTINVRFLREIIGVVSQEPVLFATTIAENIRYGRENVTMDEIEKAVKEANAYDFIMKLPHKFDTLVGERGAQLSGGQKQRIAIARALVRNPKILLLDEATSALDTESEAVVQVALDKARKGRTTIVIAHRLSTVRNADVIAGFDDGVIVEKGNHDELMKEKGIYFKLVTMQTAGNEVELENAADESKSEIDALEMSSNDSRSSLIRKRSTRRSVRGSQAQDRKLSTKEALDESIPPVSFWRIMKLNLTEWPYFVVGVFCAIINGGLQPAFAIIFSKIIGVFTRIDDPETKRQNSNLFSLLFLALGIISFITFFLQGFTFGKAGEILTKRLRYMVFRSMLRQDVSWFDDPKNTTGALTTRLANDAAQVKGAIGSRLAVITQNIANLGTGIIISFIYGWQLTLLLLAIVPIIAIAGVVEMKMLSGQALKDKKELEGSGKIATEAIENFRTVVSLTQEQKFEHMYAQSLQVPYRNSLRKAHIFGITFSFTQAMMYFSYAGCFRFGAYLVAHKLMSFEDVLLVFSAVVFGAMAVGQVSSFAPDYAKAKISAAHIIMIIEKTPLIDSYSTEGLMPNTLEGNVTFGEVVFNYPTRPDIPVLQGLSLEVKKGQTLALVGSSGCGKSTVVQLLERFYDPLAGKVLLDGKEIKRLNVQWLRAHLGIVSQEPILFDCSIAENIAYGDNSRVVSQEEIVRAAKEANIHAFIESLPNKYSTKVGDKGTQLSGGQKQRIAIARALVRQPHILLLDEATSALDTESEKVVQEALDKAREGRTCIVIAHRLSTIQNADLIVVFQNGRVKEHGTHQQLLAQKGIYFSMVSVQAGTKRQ", "conditions": "efflux ratio"}, "[4]": {"molecular_target": "T3, M4 (h) (Homo sapiens, UniProt P08173)", "T3 construct": "CEREP (contract assay)", "assay": "CEREP panel", "assay_type": "binding", "conditions": "10 µM"}, "[5]": {"test_system": "sigma (non-selective) (h)", "assay_type": "binding, human", "conditions": "10 µM"}, "[6]": {"assay": "not given", "remark": "listed apart in the source"}, "[7]": {"molecular_target": "T4, 5-HT2A (h) (Homo sapiens, UniProt P28223)", "T4 construct": "CEREP (contract assay)", "T4 sequence (P28223 whole entry)": "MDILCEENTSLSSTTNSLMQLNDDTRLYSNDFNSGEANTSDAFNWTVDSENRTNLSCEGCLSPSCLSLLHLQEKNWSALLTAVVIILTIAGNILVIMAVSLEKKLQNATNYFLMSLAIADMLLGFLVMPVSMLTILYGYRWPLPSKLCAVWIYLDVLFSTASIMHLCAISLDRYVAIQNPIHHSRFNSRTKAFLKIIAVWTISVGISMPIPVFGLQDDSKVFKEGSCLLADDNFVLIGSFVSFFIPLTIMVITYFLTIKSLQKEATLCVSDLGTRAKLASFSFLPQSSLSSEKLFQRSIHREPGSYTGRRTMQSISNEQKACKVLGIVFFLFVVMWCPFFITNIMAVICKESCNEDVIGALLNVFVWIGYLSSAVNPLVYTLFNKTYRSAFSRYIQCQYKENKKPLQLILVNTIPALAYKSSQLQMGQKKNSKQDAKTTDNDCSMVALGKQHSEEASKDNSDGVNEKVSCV", "assay": "CEREP panel", "assay_type": "binding", "conditions": "10 µM"}, "[8]": {"assay": "in vitro", "conditions": "both, human, microsomes, pH 7.4"}, "[9]": {"molecular_target": "T5, COX2 (h) (Homo sapiens, UniProt P35354)", "T5 construct": "CEREP (contract assay)", "T5 sequence (P35354 18-604)": "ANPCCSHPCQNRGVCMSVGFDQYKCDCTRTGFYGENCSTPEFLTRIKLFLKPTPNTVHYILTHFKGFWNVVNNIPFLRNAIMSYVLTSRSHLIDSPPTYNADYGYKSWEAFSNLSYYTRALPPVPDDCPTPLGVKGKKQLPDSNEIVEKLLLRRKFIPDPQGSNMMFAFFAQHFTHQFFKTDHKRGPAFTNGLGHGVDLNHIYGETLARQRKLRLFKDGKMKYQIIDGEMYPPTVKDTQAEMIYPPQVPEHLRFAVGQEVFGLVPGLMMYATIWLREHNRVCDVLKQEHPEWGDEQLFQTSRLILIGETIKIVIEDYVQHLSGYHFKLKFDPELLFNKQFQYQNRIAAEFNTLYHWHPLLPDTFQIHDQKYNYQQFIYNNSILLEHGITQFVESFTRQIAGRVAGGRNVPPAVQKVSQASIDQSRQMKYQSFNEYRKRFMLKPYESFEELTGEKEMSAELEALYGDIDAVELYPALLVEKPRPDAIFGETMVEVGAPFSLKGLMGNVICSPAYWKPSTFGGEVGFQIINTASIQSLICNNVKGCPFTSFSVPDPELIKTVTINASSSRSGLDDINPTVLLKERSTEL", "assay": "CEREP panel, enzyme and cell-based assays", "assay_type": "biochemical", "conditions": "10 µM"}, "[10]": {"molecular_target": "T6, mCB2R (Mus musculus, UniProt P47936)", "T6 sequence (P47936 whole entry)": "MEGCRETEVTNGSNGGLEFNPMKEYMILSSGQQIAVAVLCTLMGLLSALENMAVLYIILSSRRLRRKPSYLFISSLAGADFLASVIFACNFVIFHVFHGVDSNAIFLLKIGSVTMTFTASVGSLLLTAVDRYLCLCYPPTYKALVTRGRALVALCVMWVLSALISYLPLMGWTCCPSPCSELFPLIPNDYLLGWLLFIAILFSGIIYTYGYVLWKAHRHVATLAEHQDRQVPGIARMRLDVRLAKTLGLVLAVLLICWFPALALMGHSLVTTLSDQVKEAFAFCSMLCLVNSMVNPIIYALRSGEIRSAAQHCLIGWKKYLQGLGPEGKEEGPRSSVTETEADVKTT", "assay": "[35S]GTPγS assay", "assay_type": "biochemical", "parameters": "from tissue; host or cells: spleen of male C57BL/6J mice"}, "[11]": {"test_system": "C57BL6/J mice", "assay": "Triad assay: antinociception", "assay_type": "in vivo, mouse"}, "[12]": {"molecular_target": "T7, NOP (ORL1) (h) (Homo sapiens, UniProt P41146)", "T7 construct": "CEREP (contract assay)", "assay": "CEREP panel", "assay_type": "binding", "conditions": "10 µM"}, "[13]": {"test_system": "P2X", "assay": "CEREP panel", "assay_type": "binding", "conditions": "10 µM"}, "[14]": {"molecular_target": "T8, NTS1 (NT1) (h) (Homo sapiens, UniProt P30989)", "T8 construct": "CEREP (contract assay)", "assay": "CEREP panel", "assay_type": "binding", "conditions": "10 µM"}, "[15]": {"test_system": "C57BL6/J mice", "assay": "Triad assay: catalepsy", "assay_type": "in vivo, mouse"}, "[16]": {"assay": "Pharmacokinetics, oral administration in mice", "assay_type": "in vivo, mouse", "conditions": "p.o."}, "[17]": {"molecular_target": "T9, PAC1 (PACAP) (h) (Homo sapiens, UniProt P41586)", "T9 construct": "CEREP (contract assay)", "T9 sequence (P41586 21-468)": "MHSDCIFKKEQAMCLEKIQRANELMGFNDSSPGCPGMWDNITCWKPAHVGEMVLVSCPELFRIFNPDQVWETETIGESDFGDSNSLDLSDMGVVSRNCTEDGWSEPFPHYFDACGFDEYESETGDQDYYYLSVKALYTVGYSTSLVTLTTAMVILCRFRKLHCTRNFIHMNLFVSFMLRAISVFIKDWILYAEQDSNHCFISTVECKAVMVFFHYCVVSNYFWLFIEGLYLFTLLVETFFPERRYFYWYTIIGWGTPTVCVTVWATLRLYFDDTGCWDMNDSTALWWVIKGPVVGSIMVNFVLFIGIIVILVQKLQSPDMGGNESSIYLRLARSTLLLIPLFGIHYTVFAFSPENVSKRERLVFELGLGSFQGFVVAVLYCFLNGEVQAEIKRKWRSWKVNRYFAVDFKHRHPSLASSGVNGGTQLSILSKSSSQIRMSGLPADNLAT", "assay": "CEREP panel", "assay_type": "binding", "conditions": "10 µM"}, "[18]": {"molecular_target": "T10, beta 2 (h) (Homo sapiens, UniProt P07550)", "T10 construct": "CEREP", "T10 sequence (P07550 whole entry)": "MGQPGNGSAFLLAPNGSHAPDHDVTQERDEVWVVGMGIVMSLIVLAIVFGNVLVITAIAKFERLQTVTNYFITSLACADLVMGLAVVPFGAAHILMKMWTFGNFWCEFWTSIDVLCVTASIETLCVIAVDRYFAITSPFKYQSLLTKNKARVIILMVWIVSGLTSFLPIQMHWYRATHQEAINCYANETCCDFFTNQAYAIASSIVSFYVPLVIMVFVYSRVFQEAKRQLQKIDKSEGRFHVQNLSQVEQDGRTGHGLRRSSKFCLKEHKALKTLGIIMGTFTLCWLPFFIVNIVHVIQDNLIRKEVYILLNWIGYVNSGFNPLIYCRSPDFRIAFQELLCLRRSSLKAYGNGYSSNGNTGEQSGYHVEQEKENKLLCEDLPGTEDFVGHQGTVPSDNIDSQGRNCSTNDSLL", "assay": "CEREP panel", "assay_type": "binding", "conditions": "10 µM"}, "[19]": {"test_system": "P2Y", "assay": "CEREP panel", "assay_type": "binding", "conditions": "10 µM"}, "[20]": {"molecular_target": "T11, MT1 (ML1A) (h) (Homo sapiens, UniProt P48039)", "T11 construct": "CEREP (contract assay)", "T11 sequence (P48039 whole entry)": "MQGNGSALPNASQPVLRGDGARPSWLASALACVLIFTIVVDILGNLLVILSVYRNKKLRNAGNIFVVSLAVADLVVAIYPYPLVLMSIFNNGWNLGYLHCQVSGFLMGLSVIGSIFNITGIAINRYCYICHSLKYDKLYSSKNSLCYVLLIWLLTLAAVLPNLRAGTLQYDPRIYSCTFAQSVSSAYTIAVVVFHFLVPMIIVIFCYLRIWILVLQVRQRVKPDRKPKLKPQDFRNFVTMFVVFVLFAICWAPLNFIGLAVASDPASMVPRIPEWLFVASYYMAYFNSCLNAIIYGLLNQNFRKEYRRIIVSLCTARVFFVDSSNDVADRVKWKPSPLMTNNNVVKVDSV", "assay": "CEREP panel", "assay_type": "binding", "conditions": "10 µM"}, "[21]": {"molecular_target": "T12, BZD (peripheral) (Rattus norvegicus, UniProt P16257)", "T12 construct": "CEREP", "T12 sequence (P16257 whole entry)": "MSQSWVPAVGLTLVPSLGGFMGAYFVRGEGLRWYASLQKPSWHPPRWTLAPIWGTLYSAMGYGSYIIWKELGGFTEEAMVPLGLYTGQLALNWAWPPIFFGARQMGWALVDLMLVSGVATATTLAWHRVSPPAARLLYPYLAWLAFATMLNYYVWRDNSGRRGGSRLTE", "assay": "CEREP panel", "assay_type": "binding", "conditions": "10 µM"}, "[22]": {"molecular_target": "T13, AT2 (h) (Homo sapiens, UniProt P50052)", "T13 construct": "CEREP", "T13 sequence (P50052 1-363)": "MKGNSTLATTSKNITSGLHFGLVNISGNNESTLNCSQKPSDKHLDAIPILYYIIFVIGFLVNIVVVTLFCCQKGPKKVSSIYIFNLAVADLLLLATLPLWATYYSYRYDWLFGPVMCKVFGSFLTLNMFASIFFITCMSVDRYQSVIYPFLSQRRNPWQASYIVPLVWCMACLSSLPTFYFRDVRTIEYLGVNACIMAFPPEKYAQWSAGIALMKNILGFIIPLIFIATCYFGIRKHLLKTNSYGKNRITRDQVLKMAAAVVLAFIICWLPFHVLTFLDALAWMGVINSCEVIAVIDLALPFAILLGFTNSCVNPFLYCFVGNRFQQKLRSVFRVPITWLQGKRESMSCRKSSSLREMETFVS", "assay": "CEREP panel", "assay_type": "binding", "conditions": "10 µM"}, "[23]": {"molecular_target": "T14, NK1 (h) (Homo sapiens, UniProt P25103)", "T14 construct": "CEREP (contract assay)", "T14 sequence (P25103 whole entry)": "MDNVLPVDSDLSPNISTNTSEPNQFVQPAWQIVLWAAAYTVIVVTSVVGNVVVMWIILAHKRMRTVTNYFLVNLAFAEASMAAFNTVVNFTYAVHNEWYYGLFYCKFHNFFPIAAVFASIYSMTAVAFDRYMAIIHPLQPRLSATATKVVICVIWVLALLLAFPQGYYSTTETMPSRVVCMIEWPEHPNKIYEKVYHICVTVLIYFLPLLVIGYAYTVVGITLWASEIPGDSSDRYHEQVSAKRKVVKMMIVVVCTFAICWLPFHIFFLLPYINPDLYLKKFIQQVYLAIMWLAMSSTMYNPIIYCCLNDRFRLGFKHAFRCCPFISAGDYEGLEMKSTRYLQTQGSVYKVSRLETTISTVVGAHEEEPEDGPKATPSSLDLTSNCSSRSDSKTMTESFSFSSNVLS", "assay": "CEREP panel", "assay_type": "binding", "conditions": "10 µM"}, "[24]": {"molecular_target": "T15, CB1 (h) (Homo sapiens, UniProt P21554)", "T15 construct": "CEREP (contract assay)", "T15 sequence (P21554 whole entry)": "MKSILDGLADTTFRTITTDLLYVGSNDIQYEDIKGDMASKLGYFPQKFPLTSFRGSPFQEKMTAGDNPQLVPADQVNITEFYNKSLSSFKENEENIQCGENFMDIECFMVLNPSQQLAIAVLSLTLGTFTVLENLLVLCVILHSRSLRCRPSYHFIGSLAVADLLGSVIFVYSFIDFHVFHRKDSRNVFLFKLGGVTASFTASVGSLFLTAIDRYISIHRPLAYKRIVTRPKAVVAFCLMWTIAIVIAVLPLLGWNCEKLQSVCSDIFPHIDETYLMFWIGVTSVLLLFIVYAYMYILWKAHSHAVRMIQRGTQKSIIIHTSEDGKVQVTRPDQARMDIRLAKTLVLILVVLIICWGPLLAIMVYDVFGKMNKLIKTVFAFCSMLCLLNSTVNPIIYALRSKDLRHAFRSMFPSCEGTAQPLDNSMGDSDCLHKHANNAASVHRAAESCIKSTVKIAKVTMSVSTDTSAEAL", "assay": "biochemical", "assay_type": "binding", "conditions": "10 µM"}, "[25]": {"molecular_target": "T6, mCB2R", "assay": "Operational analysis of biased signalling"}, "[26]": {"conditions": "1-100 mg kg^−1 i.p., cumulative, mice"}, "[27]": {"conditions": "pretreatment (SR141716A 3 mg kg^−1, HU910 30 mg kg^−1) before HU210 1.7 mg kg^−1"}}, "note": "Entries after “also recorded” stand apart in the source; their conditions may differ.", "data": [{"compound": "CN1CCCC[C@H]1Cn1cc(C(=O)c2cc([N+](=O)[O-])ccc2I)c2ccccc21", "note": "[(S)-AM1241]", "values": [{"measurement": "% inhibition 5-HT1A (h)", "setting": "[1]", "value": 74, "unit": "%"}, {"measurement": "% inhibition sst4 (h)", "setting": "[2]", "value": 63, "unit": "%"}, {"measurement": "P-gp (ER) human", "setting": "[3]", "value": 2.7}, {"measurement": "Plasma protein binding human", "value": 0.5, "unit": "%free"}, {"measurement": "% inhibition M4 (h)", "setting": "[4]", "value": 74, "unit": "%"}, {"measurement": "% inhibition sigma (non-selective) (h)", "setting": "[5]", "value": 101, "unit": "%"}, {"measurement": "Plasma protein binding mouse", "setting": "[6]", "value": 1.2, "unit": "%free"}, {"measurement": "% inhibition 5-HT2A (h)", "setting": "[7]", "value": 67, "unit": "%"}]}, {"compound": "CCCCC/C=C\\C/C=C\\C/C=C\\C/C=C\\CCCC(=O)OC(CO)CO", "note": "[2-AG, 2-arachidonoyl glycerol]", "values": [{"measurement": "microsomal CLint", "setting": "[8]", "value": 13, "unit": "µL/min/mg"}]}, {"compound": "Cc1c(C(=O)c2cccc3ccccc23)c2cccc3c2n1[C@H](CN1CCOCC1)CO3", "note": "[WIN55212-2]", "values": [{"measurement": "% inhibition sst4 (h)", "setting": "[2]", "value": 64, "unit": "%"}, {"measurement": "Plasma protein binding mouse", "setting": "[6]", "value": 1.0, "unit": "%free"}, {"measurement": "% inhibition COX2 (h)", "setting": "[9]", "value": 50, "unit": "%"}]}, {"compound": "Cc1ccc2c(c1)Cc1c(C(=O)NN3CCCCC3)nn(-c3ccc(Cl)cc3Cl)c1-2", "note": "[Gp-1a]", "values": [{"measurement": "P-gp (ER) human", "setting": "[3]", "value": 1.0}, {"measurement": "% inhibition sigma (non-selective) (h)", "setting": "[5]", "value": 51, "unit": "%"}]}, {"compound": "CCCCCCC(C)(C)c1cc(OC)c(C2=C[C@H]3CC[C@]2(CO)C3(C)C)c(OC)c1", "note": "[HU910]", "values": [{"measurement": "pEC50 ± SEM GTPγS mCB2R", "setting": "[10]", "value": "7.27 ± 0.08"}, {"measurement": "Emax ± SEM GTPγS mCB2R", "setting": "[10]; normalized to 10 µM CP55940", "value": "78 ± 4", "unit": "%"}, {"measurement": "antinociception, cannabimimetic effect", "setting": "[11]; [26]", "value": "did not produce detectable; also recorded: lacked appreciable pharmacological effects"}, {"measurement": "antagonism of HU210-induced antinociception", "setting": "[11]; [27]", "value": "did not significantly reduce"}, {"measurement": "% inhibition NOP (ORL1) (h)", "setting": "[12]", "value": 4, "unit": "%"}, {"measurement": "% inhibition P2X", "setting": "[13]", "value": -10, "unit": "%"}, {"measurement": "% inhibition NTS1 (NT1) (h)", "setting": "[14]", "value": -19, "unit": "%"}, {"measurement": "P-gp (ER) human", "setting": "[3]", "value": 2.2}, {"measurement": "catalepsy, cannabimimetic effect", "setting": "[15]; [26]", "value": "did not produce detectable; also recorded: lacked appreciable pharmacological effects"}, {"measurement": "antagonism of HU210-induced catalepsy", "setting": "[15]; [27]", "value": "did not significantly reduce"}, {"measurement": "Plasma protein binding human", "value": 1.8, "unit": "%free"}, {"measurement": "AUCinf", "setting": "[16]", "value": 904, "unit": "ng·h/mL"}, {"measurement": "AUCinf/dose", "setting": "[16]", "value": 301, "unit": "kg·ng·h/mL/mg"}, {"measurement": "AUClast", "setting": "[16]", "value": 895, "unit": "ng·h/mL"}, {"measurement": "Cmax", "setting": "[16]", "value": 495, "unit": "ng/mL"}, {"measurement": "T1/2", "setting": "[16]", "value": 5.2, "unit": "h"}, {"measurement": "Tmax", "setting": "[16]", "value": 1.0, "unit": "h"}, {"measurement": "% inhibition PAC1 (PACAP) (h)", "setting": "[17]", "value": 0, "unit": "%"}, {"measurement": "% inhibition beta 2 (h)", "setting": "[18]", "value": -5, "unit": "%"}, {"measurement": "% inhibition P2Y", "setting": "[19]", "value": -7, "unit": "%"}, {"measurement": "% inhibition MT1 (ML1A) (h)", "setting": "[20]", "value": 52, "unit": "%"}, {"measurement": "% inhibition BZD (peripheral)", "setting": "[21]", "value": -11, "unit": "%"}, {"measurement": "% inhibition AT2 (h)", "setting": "[22]", "value": 13, "unit": "%"}, {"measurement": "% inhibition NK1 (h)", "setting": "[23]", "value": 42, "unit": "%"}, {"measurement": "Plasma protein binding mouse", "setting": "[6]", "value": 4.1, "unit": "%free"}, {"measurement": "% inhibition CB1 (h)", "setting": "[24]", "value": 71, "unit": "%"}, {"measurement": "GTPγS-cAMP bias factor (BF)", "setting": "[25]", "value": 23.6}, {"measurement": "GTPγS-cAMP ΔΔlogR", "setting": "[25]", "value": "1.37 ± 0.24"}, {"measurement": "LogR GTPγS", "setting": "[25]", "value": "7.15 ± 0.07"}, {"measurement": "LogR cAMP", "setting": "[25]", "value": "8.48 ± 0.18"}, {"measurement": "LogR β-AR", "setting": "[25]", "value": "6.57 ± 0.11"}, {"measurement": "β-AR-GTPγS bias factor (BF)", "setting": "[25]", "value": 0.18}, {"measurement": "β-AR-GTPγS ΔΔlogR", "setting": "[25]", "value": "-0.75 ± 0.15"}, {"measurement": "β-AR-cAMP bias factor (BF)", "setting": "[25]", "value": 4.2}, {"measurement": "β-AR-cAMP ΔΔlogR", "setting": "[25]", "value": "0.63 ± 0.26"}, {"measurement": "ΔLogR GTPγS", "setting": "[25]; reference CP55940", "value": "-0.67 ± 0.08"}, {"measurement": "ΔLogR cAMP", "setting": "[25]; reference CP55940", "value": "-2.04 ± 0.23"}, {"measurement": "ΔLogR β-AR", "setting": "[25]; reference CP55940", "value": "-1.41 ± 0.12"}, {"measurement": "RE GTPγS", "setting": "[25]; relative effectiveness", "value": 0.22}, {"measurement": "RE cAMP", "setting": "[25]; relative effectiveness", "value": 0.009}, {"measurement": "RE β-AR", "setting": "[25]; relative effectiveness", "value": 0.04}]}, {"compound": "Cc1c(C(=O)NN2CCCCC2)nn(-c2ccc(Cl)cc2Cl)c1-c1ccc(I)cc1", "note": "[AM251]", "values": [{"measurement": "% inhibition sst4 (h)", "setting": "[2]", "value": 51, "unit": "%"}]}]}
